From ChEMBL document CHEMBL1159300, “Salmahyrtisol A, a novel cytotoxic sesterterpene from the Red Sea sponge Hyrtios erecta” (J Nat Prod, 2002)

Tests used:
Format in all cases: functional, cell-based
[1] = tested on: P388; test: Cytotoxicity against mouse P388 cells
[2] = tested on: A549; test: Cytotoxicity against human A549 cells
[3] = tested on: HT-29; test: Cytotoxicity against human HT-29 cells

Measured: IC50

CC(=O)O[C@H]1CC[C@]2(C)[C@H]3C[C@@H](O)[C@]4(C)C5=C(CC[C@H]4[C@]3(C)CC[C@H]2C1(C)C)COC5=O
≥ 1 µg/mL: all assays above

CC(=O)O[C@@H]1c2occc2[C@@H](O)C[C@H]2[C@]3(C)CC[C@H]4C(C)(C)CCC[C@]4(C)[C@H]3C[C@@]21C [SALMAHYRTISOL A]
≥ 1 µg/mL: all assays above

CC1(C)CCC[C@]2(C)[C@H]3C[C@@H](O)[C@]4(C)c5cocc5C(=O)C[C@H]4[C@]3(C)CC[C@@H]12 [SALMAHYRTISOL B]
≥ 1 µg/mL: all assays above

CC(=O)OC[C@]1(C)CCC[C@]2(C)[C@H]3C[C@@H](O)[C@]4(C)C5=C(CC[C@H]4[C@]3(C)CC[C@@H]12)COC5=O
≥ 1 µg/mL: all assays above
